Reference: patent US20150190416A1, “FILAGGRIN PRODUCTION PROMOTER, THERAPEUTIC AGENT FOR DISEASES ASSOCIATED WITH REDUCTION IN PRODUCTION OF FILAGGRIN, AND METHOD FOR SCREENING FOR SAID THERAPEUTIC AGENT” (KYOTO UNIVERSITY, priority 2012, published 2015)

Experiments:
GPR22 = experiment: G protein-coupled receptor (GPCR) array in NHEK cells, GPR22 (Example 3); type: cell-based, human; conditions: Compound 1 1 μM, 3 days
Procedure: (§1) In this example, the expression-increasing effect of Compound 1 on a GPCR in NHEK cells was confirmed by using a GPCR array.
(§2) 1) 5×10^4 cells/well of NHEK cells (Invitrogen) were plated on a 24-well plate, and then 500 μl of a culture medium containing a medium for proliferating normal human epidermal keratinocytes (HuMedia-KG2, KURABO INDUSTRIES LTD.) supplemented with hEGF (0.1 ng/ml), insulin (10 μg/ml), hydrocortisone (0.5 μg/ml), gentamycin (50 μg/ml), amphotericin B (50 ng/ml), and bovine brain pituitary extract (BPE) (0.4%, v/v) were added to the plate, and the cells were cultured under the conditions of 37° C. and 5% CO2 for from 3 to 4 days until the 80 to 85% confluent state was achieved.
(§3) 2) Next, a DMSO solution of Compound 1 was added to the medium at 1 μM per well, and culture was further conducted for 3 days without changing the medium. In addition, regarding the system to which only CaCl2 (1.5 mM in terms of Ca) as Ca was added and the system to which both Compound 1 and CaCl2 (1.5 mM in terms of Ca) as Ca were added, the culture was conducted in a similar manner for 3 days. As a control example, a solvent only (vehicle) was added.
3) An extraction reagent (TRIzol™, Invitrogen) was used, and according to the manufacturer's protocol, total RNA was extracted from each of cells treated in the step 2). […]

GPR142 = experiment: G protein-coupled receptor (GPCR) array in NHEK cells, GPR142 (Example 3); type: cell-based, human; conditions: Compound 1 1 μM, 3 days
Procedure: as §1, §2, §3
3) An extraction reagent (TRIzol™, Invitrogen) was used, and according to the manufacturer's protocol, total RNA was extracted from each of cells treated in the step 2). A reverse transcriptase reagent (Prime Script™, Takara) was used, and according to the manufacturer's protocol, cDNA was prepared from the total RNA. Next, a TaqMan™ human GPCR array (AB 4365295, Applied Biosystems) was used, and the analysis was conducted by an ABI PRISM™ 7900HT gene analyzer (Applied Biosystems). The result of measurement was shown as the comparison of the cycle number (ΔCt value) to 18S ribosomal RNA as a control (comparative Ct method).

FLG protein = FLG protein in cultured human normal skin, immunohistostaining (Example 12); type: cell-based; conditions: 1 μM, 4 days
Description: In this example, the expression-increasing effect of Compound 1 (N-quinolylbenzamide derivative) on FLG monomer was examined by using human normal skin. The expression of the FLG monomer was confirmed by an immunohistostaining method using an anti-human FLG antibody. The medium used was a medium for proliferating normal human epidermal keratinocytes (HuMedia-KG2, KURABO INDUSTRIES LTD.). It should be noted that, in this example, surplus portions of normal skin derived from extirpation of portions of a skin disease were used under the agreement by the donor through Ethics Committee of Kyoto University.
1) Human normal skin (with a size of 5×5×5 mm) was put on a transwell of a 24-well transwell plate, 500 μl of the medium, to which Compound 1 (1 μM) or a control (vehicle (DMSO)) was added, were added to the lower part, and the skin was cultured. After culture for 2 days, the medium was exchanged for the same medium.
2) After 4 days, the cultured skin was collected, and was soaked in 10% formalin overnight, and thereafter, a paraffin section having a thickness of […] was prepared according to a conventional method. […]

GPR142 mRNA = GPR142 mRNA expression in NHEK cells, real-time PCR (Example 4); type: cell-based, human; conditions: Compound 1 1 μM, Ca 1.2 mM, 3 days, compared to the control
Procedure: In this example, the expression-inducing effects of Compound 1 on GPR142 mRNA and GPR22 mRNA in NHEK cells were confirmed.
as §2, with “plate. Then,” for “plate, and then”, “CO2.” for “CO2 for from 3 to 4 days until the 80 to 85% confluent state was achieved.”
2) After culture under the conditions of the step 1) for 1 day, the medium was exchanged for the culture medium of the step 1) to which a DMSO solution of Compound 1 was added at 1 μM per well every day and the culture was conducted for 3 days. […]
3) An extraction reagent (TRIzol™, Invitrogen) was used, and according to the manufacturer's protocol, total RNA was extracted from each of cells treated with the medicament. […] Next, real-time PCR was conducted by using the following primers and SYBR™ Premix Ex Taq (Takara) with a CFX96 real-time PCR instrument according to the manufacturer's protocol, and the amounts of GPR142mRNA and GPR22mRNA expression were measured. […]

[1] = CaCl2 1.5 mM in terms of Ca, control 29.2

`CCc1ccc(OCc2ccccc2C(=O)Nc2ccc3nc(C)cc(N)c3c2)cc1.Cl` [Compound 1, N-(4-Amino-2-methyl-6-quinolyl)-2-[(4-ethylphenoxy)methyl]benzamide hydrochloride] was tested, and the “GPR22 mRNA expression (GPCR array), in words” value (GPR22; Ca 1.5 mM) was “expression was induced”, the “GPR22: cycle number (ΔCt value) to 18S ribosomal RNA” value (GPR22; [1]) was 6.7 and the “GPR142 mRNA expression (GPCR array), in words” value (GPR142; Ca 1.5 mM) was “expression was induced”. For the same compound, the “GPR142: cycle number (ΔCt value) to 18S ribosomal RNA” value (GPR142; [1]) was −4.9, the “development of the stratum corneum” value (FLG protein) was “greater than that of the control” and the “FLG protein within the skin” value (FLG protein; immunohistostaining) was “markedly increased”. For the same compound, the “GPR142 mRNA expression (GAPDH ratio)” value (GPR142 mRNA) was “GPR142 mRNA expression was induced”.
